Measurements from patent publication US20070141619A1, “DRUG RESISTANCE-ASSOCIATED GENE AND USE THEREOF” (BANYU PHARMACEUTICAL CO., Ltd., priority 2000, published 2007).
Entries after “also recorded” stand apart in the source; their conditions may differ.

Tests used:
[1] = test system: MCF-7/R7; test: SRB drug sensitivity, MCF-7 with introduced ABCG2 of the present invention; format: cell-based, human; conditions: MCF-7/R7 (ABCG2 of the present invention), FIG. 6
Procedure: (§1) The full length human ABCG2 cDNA of the present invention prepared in Example 5 was inserted into a plasmid for expression in mammalian cells, followed by transfection of human breast cancer cells, MCF-7 cells, with the ABCG2 expression plasmid using Effectene Transfection Reagent (QIAGEN). Likewise, human breast cancer cells, MCF-7 cells, were transfected with a plasmid including the ABCG2-482T cDNA prepared in Example 10. The experiments were carried out according to an attached procedural manual. As a control experiment, the MCF-7 cells were also transfected with vector alone. The three experiments were conducted simultaneously. Two days from the transfection, the original media were replaced with selective media containing 900 μg/ml of Geneticin (GIBCO BRL). By culture over a prolonged term under this condition, stable transfectant clones with introduced plasmid were selected. Two to three weeks from the transfection, emerging colonies were picked and the expression of ABCG2 in the cells was examined by Northern Blot analysis. Northern Blot analysis was performed as described in Example 4: 8 μg of total RNA prepared from each clone using RNeasy mini kit (QIAGEN) was separated on a formaldehyde denatured agarose gel, followed by analysis using the human ABCG2 cDNA fragment of the present invention as a probe.
(§2) The drug sensitivity of the stable transfectant clones which were established from MCF-7 cells with introduced ABCG2- or ABCG2-482T-expression plasmid, was measured using SRB method as described in Example 2 and the sensitivity of each transfectant to drugs was shown as a relative resistance to the cells with introduced vector alone (FIG. 6).

[2] = test system: MCF-7 cells expressing introduced BCRP; conditions: report of Doyle et al. 1998; cited from earlier work
[3] = test system: PC-13/Vector; test: SRB drug sensitivity, PC-13 transfected with vector alone; format: cell-based; conditions: Homo sapiens, average ± standard error of three independent experiments
Procedure: (§3) Test cells in the logarithmic growth phase were dispensed into wells of 96-well plate at 1×10^3 cells/well. After subculture for 24 hours in a CO2 incubator, a serial diluted agent was added to each well. After further incubation for 72 hours, the cells were fixed with trichloroacetic acid (TCA) and the proteins in the cells were stained by 0.4% sulforhodamine B solution. The samples were eluted by 10 mM Tris-HCl for 1 hour, and each well was measured at 560 nm with a 450 nm reference, by a SPECTRAmax 250 plate reader (Molecular Devices Corp.).
(§4) PC-13 cells were transfected with the ABCG2 expression plasmids using Effectene Transfection Reagent (QIAGEN). The experiment was performed according to the attached procedural manual. As a control experiment, other PC-13 cells were transfected with vector alone without the ABCG2 sequence. The two experiments were conducted simultaneously. Two days after the transfection, the original media were replaced with selection media containing 0.2 mg/ml of Geneticin (GIBCO BRL). By culture for a long time under this condition, stable transfectant clones with the introduced plasmids were selected. Two weeks from the transfection, emerging colonies were picked and expression of ABCG2 in the cells was examined by Northern Blot analysis.

[4] = test system: HeLaS3; test: SRB drug sensitivity, HeLaS3 (Compound-A-sensitive); format: cell-based; conditions: Homo sapiens, HeLa S3, 72 hours with agent
[5] = test system: MCF-7/R7; test: Mitoxantrone accumulation by flow cytometry in MCF-7/R7; format: cell-based, human; conditions: 20 μM Mitoxantrone, 90 min, FIG. 7-(b)
Procedure: (§5) The amount of accumulation of Mitoxantrone in the MCF-7 stable transfectants with introduced ABCG2 of the present invention or ABCG2-482T was measured as follows.
(§6) Cells seeded at 1.0×10^6 cells/well in a 6-well culture plate were incubated for overnight. The next day, the cells in a fresh medium containing 20 μM Mitoxantrone were cultured at 37° C. for 90 min in a CO2 incubator to incorporate the compound into the cells. After a lapse of 90 min, the cells were rapidly chilled on ice, washed once with PBS, detached using 2.5% trypsin. The lysate was centrifuged at 400×g at 4° C. for 3 min to collect the cells. The collected cells were suspended in Hank's Balanced Salt Solutions containing 1% BSA and subjected to fluorimetry of the compound using a flow cytometer, Epics Elite (Beckman Coulter, Inc.). The value was indicated as Intracellular Accumulation (FIG. 7-(b)).

[6] = test system: ABCG2; test: SRB drug sensitivity, PC-13 transfected with ABCG2 (clone 3); format: cell-based, human; conditions: human; PC-13/ABCG2-3; average ± standard error of three independent experiments
Procedure: as §3, §4

[7] = test system: PC-13/ABCG2-3; test: as above; format: cell-based, human
Procedure: as §3, §4

[8] = test system: LY; test: SRB drug sensitivity, LY parental fibroblasts; format: cell-based; conditions: Mus musculus, Fibroblast, 72 hours with agent
[9] = test system: LY/NR2; test: SRB drug sensitivity, Compound-A-resistant LY/NR2; format: cell-based, mouse
Text: An emerging colony was isolated as described above and designated as LY/NR2.

[10] = test system: MCF-7/T8; test: SRB drug sensitivity, MCF-7 with introduced ABCG2-482T; format: cell-based, human; conditions: MCF-7/T8 (ABCG2-482T)
Procedure: as §1, §2

[11] = test system: PC13; test: SRB drug sensitivity, PC-13 parental cells; format: cell-based; conditions: Homo sapiens, 72 hours with agent
[12] = test system: PC13/NR13; test: SRB drug sensitivity, Compound-A-resistant PC-13/NR13; format: cell-based, human
[13] = test system: LY/NR1; test: SRB drug sensitivity, Compound-A-resistant LY/NR1; format: cell-based, mouse
Text: A colony that grew under these conditions was isolated using a cloning ring (Asahi Techno Glass Corporation) and designated as LY/NR1.

[14] = test system: HeLa#7; test: SRB drug sensitivity, spontaneously resistant HeLa#7; format: cell-based, human
[15] = test system: MCF-7/T8; test: Mitoxantrone accumulation by flow cytometry in MCF-7/T8; format: cell-based, human; conditions: 20 μM Mitoxantrone, 90 min, FIG. 7-(b)
Procedure: as §5, §6

[16] = test system: PC-13 cell lines with introduced ABCG2; test: SRB drug sensitivity, PC-13 cell lines with introduced ABCG2 (stated jointly); format: cell-based, human; conditions: PC-13 cell lines with introduced ABCG2, versus vector alone
Procedure: as §3, §4

[17] = test system: HCT116; test: SRB drug sensitivity, HCT116 parental cells; format: cell-based; conditions: Homo sapiens, HCT-116, 72 hours with agent
[18] = test system: HCT116/NR1; test: SRB drug sensitivity, Compound-A-resistant HCT116/NR1; format: cell-based, human
Text: An emerging colony was isolated and designated as HCT116/NR1.

[19] = test system: PC-13/ABCG2-2; test: SRB drug sensitivity, PC-13 transfected with ABCG2 (clone 2); format: cell-based, human
Procedure: as §3, §4

[20] = test system: ABCG2; test: as above; format: cell-based, human; conditions: human; PC-13/ABCG2-2; average ± standard error of three independent experiments
Procedure: as §3, §4

[21] = test system: MCF-7/R7; test: Rhodamine accumulation by flow cytometry in MCF-7/R7; format: cell-based, human; conditions: 5 μM Rhodamine, 30 min, FIG. 7-(c)
Procedure: (§7) The next day, the cells in a fresh medium containing 5 μM Rhodamine were cultured at 37° C. for 30 min in a CO2 incubator to incorporate the compound into the cells. After a lapse of 30 min, the cells were rapidly chilled on ice, washed once with PBS, detached using 2.5% trypsin. […] The collected cells were suspended in Hank's Balanced Salt Solutions with 1% BSA and subjected to fluorometry of the compound using a flow cytometer, FACSCalibur (Becton Dickinson and Company). The value was indicated as Intracellular Accumulation (FIG. 7-(c)).

[22] = test system: MCF-7/T8; test: Rhodamine accumulation by flow cytometry in MCF-7/T8; format: cell-based, human; conditions: 5 μM Rhodamine, 30 min, FIG. 7-(c)
Procedure: as §7

O=C1c2c(O)ccc(O)c2C(=O)c2c(NCCNCCO)ccc(NCCNCCO)c21 [Mitoxantrone]
relative resistance to the cells with introduced vector alone [1]: 3.8 fold
resistance [2]: 30 fold
IC50 [3]: 52 ± 21 nM
IC50 [4]: 4.4 nM
Intracellular Accumulation, of that in the cell with introduced vector alone [5]: about 50%
IC50 at 72 h [6]: 31 ± 18 nM
Rel. Res. (relative resistance) ([7]; IC50 PC-13/ABCG2-3 divided by IC50 of vector cells): 0.60
resistance compared to the PC-13 cell with introduced vector alone ([7]; PC-13/ABCG2-3, Example 8): 0.60 fold
IC50 [8]: 3.3 nM
RR: Relative Resistance ([9]; IC50 LY/NR2 divided by IC50 LY): 17
IC50 ([9]; Mus musculus, LY/NR2, SRB, 72 hours with agent): 57 nM
relative resistance to the cells with introduced vector alone ([10]; FIG. 6): 25 fold
relative resistance to the cells with introduced vector alone ([10]; FIG. 6, listed as mitoxantrone): showed resistance
IC50 [11]: 33 nM
IC50 ([12]; Homo sapiens, PC-13, PC13/NR13, SRB, 72 hours with agent): 160 nM
RR: Relative Resistance ([12]; IC50 PC13/NR13 divided by IC50 PC13): 4.9
RR: Relative Resistance ([13]; IC50 LY/NR1 divided by IC50 LY): 1.5
IC50 ([13]; Mus musculus, LY/NR1, SRB, 72 hours with agent): 7.1 nM
IC50 ([14]; Homo sapiens, HeLa#7, SRB, 72 hours with agent): 27 nM
RR: Relative Resistance ([14]; IC50 HeLa#7 divided by IC50 HeLaS3): 6.1
Intracellular Accumulation, of that in the cell with introduced vector alone [15]: about 20%
resistance of cells in which ABCG2 was forcedly expressed [16]: did not display remarkable resistance; also recorded: not resistant
IC50 [17]: 7 nM
IC50 ([18]; Homo sapiens, HCT-116, HCT116/NR1, SRB, 72 hours with agent): 67 nM
RR: Relative Resistance ([18]; IC50 HCT116/NR1 divided by IC50 HCT116): 9.6
Rel. Res. (relative resistance) ([19]; IC50 PC-13/ABCG2-2 divided by IC50 of vector cells): 0.42
resistance compared to the PC-13 cell with introduced vector alone ([19]; PC-13/ABCG2-2, Example 8): 0.42 fold
IC50 at 72 h [20]: 22 ± 8 nM

Rhodamine
Intracellular Accumulation compared with the cell with introduced vector alone [21]: almost the same level
Intracellular Accumulation, of that in the cell with introduced vector alone [22]: about 50%
